Assay results taken from patent publication US8227431B2, “Nucleoside derivatives” (Hetero Drugs Limited, priority 2008, dated 2012).

How the values were obtained:
[1] = Cell viability assay (MTT); assay type: cell-based; settings: human, Supt-1 cells, Cell line Supt-1, about 14 hours incubation, read-out: Cytotoxicity concentration (CC50)
Description: Reduction of 3-(4,5-dimethylthiozol-2-yl)-2,5-diphenyltetrazolium bromide (MTT, sigma) is chosen as an optimal mend point of cell viability measurement (Mosmann, 1983; Cole, 1986; alley et al., 1988). Cells (0.2×10^6 cells per well) were seeded in 96-well plates. Increasing concentrations of compound were added to the cells and incubated at 37° C. for about 14 hours in a CO2 Incubator with 5% CO2. The media was replaced with a fresh growth medium along with 20 μL of 5 mg/ml 3-(4,5-dimethylthiazol-2-yl)-2,5-diphenyltetrazolium bromide (MTT, Sigma). After incubation for about 4 hours in a humidified atmosphere, the media was removed and 200 μL of 0.1N acidic isopropyl alcohol was added to the wells to dissolve the MTT-formazan crystals. The absorbance was recorded at 570 nm, immediately after the development of purple colour. Each experiment was conducted in triplicate and the data are represented as average, with standard deviation. Percent viability of the cells was computed with reference to the absorbance of reduced MTT in the experiments conducted in absence of any compound. The above described examples were tested in the two biological assays as described above and some compounds were found following results as shown in table 2. Cell line Supt-1; Virus: HIV-1-93IN101

HIV-1-93IN101 = assay: P24 assay (viral p24 ELISA); assay type: cell-based; settings: Cell line Supt-1, Virus HIV-1-93IN101; for IC50: Human immunodeficiency virus 1, SUP-T1, p24 ELISA about 72 hours post infection, read-out: Inhibitory concentration 50 (IC50)
Description: Viral p24 was measured after about 72 hours of post infection in presence of drugs using ABL p24 ELISA kit. 0.5 millions cells/well were taken into the 24 well plates and added increasing concentrations of drugs. 1 ng/ml of HIV-1 virus was added to each well and incubated for overnight at 37° C. (37° C. and 5% CO2). After about 16 hours incubation media was changed and added fresh media and cultured for about 72 hours. P24 was quantified at 4th day of post-infection using ABL kit according to manufacturer's instructions. The above described examples were tested in the two biological assays as described above and some compounds were found following results as shown in table 2. Cell line Supt-1; Virus: HIV-1-93IN101

| IC50 (HIV-1-93IN101) [µM] | SMILES | CC50 [1] [µM] | Therapeutic Index (TI): CC50/IC50 (HIV-1-93IN101) |
| --- | --- | --- | --- |
| 300 | CC1(O)[C@@H](CO)OC(n2cnc3c(NC4CC4)ncnc32)[C@]1(C)F (stereo partly drawn) [Example 16, (2R,4R)-5-(6-(cyclopropylamino)-9H-purin-9yl)-4-fluoro-tetrahydro-2-(hydroxymethyl)-3,4-dimethylfuran-3-ol] | 424 | 1.4 |
| > 1000 | C[C@]1(F)[C@H](n2ccc(=O)[nH]c2=O)O[C@H](CO)[C@@]1(C)O [Example 22, 1-((2R,4R)-3-fluoro-tetrahydro-4-hydroxy-5-(hydroxymethyl)-3,4-dimethylfuran-2-yl)pyrimidine-2,4(1H,3H)-dione] | > 1000 | >1 |
| > 1000 | C[C@]1(F)C(n2cnc3c(N)ncnc32)O[C@H](CO)[C@]1(C)O (stereo partly drawn) [Example 2A, (2R,3S,4R)-5-(6-amino-9H-purin-9-yl)-4-fluoro-tetrahydro-2-(hydroxymethyl)-3,4-dimethylfuran-3-ol] | > 1000 | >1 |
| > 1000 | C[C@]1(F)[C@H](n2ccc(N)nc2=O)O[C@H](CO)[C@@]1(C)O [Example 23, 4-amino1-((2R,4R)-3-fluoro-tetrahydro-4-hydroxy-5-(hydroxymethyl)-3,4-dimethylfuran-2-yl)pyrimidin-2(1H)-one] | > 1000 | >1 |
